Assay [1] has as its target T1, mouse NTPDase8 (Mus musculus, UniProt Q8K0L2).
T1 construct: expressed in transfected cells; host or cells: COS-7
T1 sequence (Q8K0L2 1-497): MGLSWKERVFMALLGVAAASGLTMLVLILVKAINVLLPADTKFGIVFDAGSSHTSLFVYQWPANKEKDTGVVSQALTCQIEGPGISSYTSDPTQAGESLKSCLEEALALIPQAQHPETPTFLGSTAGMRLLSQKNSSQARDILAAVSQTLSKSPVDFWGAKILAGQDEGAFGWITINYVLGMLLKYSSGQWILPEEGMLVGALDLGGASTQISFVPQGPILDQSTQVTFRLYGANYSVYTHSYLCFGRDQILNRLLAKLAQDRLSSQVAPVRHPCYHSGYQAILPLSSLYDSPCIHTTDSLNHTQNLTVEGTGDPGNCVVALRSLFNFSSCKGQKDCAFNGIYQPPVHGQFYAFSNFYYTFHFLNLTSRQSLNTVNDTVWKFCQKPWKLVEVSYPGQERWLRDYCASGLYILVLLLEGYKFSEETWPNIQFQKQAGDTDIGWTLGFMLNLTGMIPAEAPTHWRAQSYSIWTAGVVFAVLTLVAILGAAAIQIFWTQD
Put plainly: NTPDase activity measurement (Pi release, malachite green) on protein extracts of COS-7 cells transfected with mouse NTPDase8. The format is biochemical. The conditions noted are these: for Vmax,app / Km: substrate of NTPDase8, Woolf-Augustinsson-Hofstee plot, mean ± SEM; for Km: read-out: Km,app. The method, then:
COS-7 cells were transfected in 10 cm plates using Lipofectamine™ (Invitrogen), as previously described (Kaczmarek et al, 1996, JBC, 271:33116–33122). Briefly, cells were incubated for 5 h at 37° C. in DMEM in absence of foetal bovine serum (FBS) with 6 μg of plasmid DNA and 24 μl of Lipofectamine™ reagent. The reaction was stopped by adding an equal volume of DMEM containing 20% FBS and cell were harvested 40–44 h later. For protein preparation, transfected cells were washed three times with Tris-saline buffer at 4° C., harvested by scraping in 95 mM NaCl, 0.1 mM PMSF and 45 mM Tris, pH 7.5, and washed twice by 300×g centrifugation for 10 min at 4° C. Cells were resuspended in the harvesting buffer containing 10 μg/ml aprotinin and sonicated. Nucleus and cellular debris were discarded by another centrifugation as described above and the supernatants stored at −80° C. until used. Protein concentration was estimated by the Bradford microplate assay using bovine serum albumin (BSA) as a standard of reference (Bradford, 1976, Analyt. Biochem., 72:248–254).
(§1) Enzyme activity in the protein fractions was determined as previously described (Sévigny et al, 1997, Biochimica Biophysica Acta 1334:73–88) Briefly, enzyme activity was measured at 37° C. in 0.5 ml of the following incubation medium: […] either with 100 mM Tris, pH 7.4 or with 100 mM MES, pH 6.4 or as indicated. Enzyme preparation was added to the incubation mixture and pre-incubated at 37° C. for 3 min. Reaction was started by the addition of 0.5 mM substrate (ATP, ADP, UTP, UDP or AMP) and stopped after 20 min by the addition of 0.125 ml of the malachite green reagent (Baykov and Evtushenko, 1988, Analytical Biochemistry 171:266–270). Activity on intact cells was carried out in similar conditions in 24 wells plates, also 40–44 h after transfection, with the addition of 145 mM NaCl to the incubation medium. The reaction was stopped by taking 0.2 ml of the reaction mixture to a new tube containing 50 μl of malachite reagent. The inorganic phosphate […] released from the hydrolysis of exogenous nucleotides was measured according to Baykov et al. (Baykov and Evtushenko, 1988, Analytical Biochemistry 171:266–270)
Optimum pH was determined in the presence of 5 mM CaCl2 with the following buffers: 100 mM acetate (pH 4.0–5.5), 100 mM MES (pH 5.5–7.0), 100 mM Tris (pH 7.0–9.0) or 100 mM glycine pH (9.0–11.0). In the indicated experiments CaCl2 was substituted by MgCl2. To remove traces of divalent cations 1 mM EDTA plus 1 mM EGTA was added to the medium. One unit of enzyme activity corresponds to the release of 1 μmole Pi/min at 37° C. (LeBel et al., 1980, J. Biol. Chem. 255:1227–1233). All experiments were performed in triplicate with the appropriate controls.

Assay [2] deals with T1, mouse NTPDase8. Put plainly: HPLC separation and quantification of nucleotides hydrolysed by mouse NTPDase8. The class given is biochemical. As to the method:
For HPLC analysis, activity assays were performed in 5 mM CaCl2 and 100 mM MES, pH 6.4 as described above with the following modifications. Aliquots of 20 μL were taken at different time points from the enzymatic reaction and activity stopped by the addition of an equal volume of ice-cold 1 M perchloric acid. The samples were centrifuged for 5 min at 1000×g at 4° C. Supernatants were neutralized with 1 M KOH (4° C.), centrifuged for a subsequent 5 min at 1000×g and then lipids were removed by liquid-liquid extraction with n-heptane (5:1, v/v). An aliquot of 20 μL from the lipid extracted sample was applied to a column connected to a HPLC system.
Adenine nucleotides (ATP, ADP and AMP) were separated on a 15 cm×4.6 mm, 3 μm SUPELCOSIL™ LC-18-T column (Supelco, Bellefonte, Pa., USA) with a mobile phase composed of 25 mM TBA, 5 mM EDTA, 100 mM KH2PO4/K2HPO4, pH 7.0 and 2% methanol (v/v), at a flow-rate of 1 ml/min. […] Combined adenine and uridine nucleotide samples were analyzed with the latter column with a mobile phase composed of 16.7 mM TBA, 3.3 mM EDTA, 66.7 mM KH2PO4/K2HPO4, pH 7.0. The flow rate was 0.5 ml/min for the first 20 min and 1 ml/min up to 90 min. The nucleotides were detected by UV absorption at 260 nm and identified by comparison of the retention time and UV spectrum with the appropriate standards.

For another assay, the target named is T2, human NTPDase8 (Homo sapiens, UniProt Q5MY95, L62P).
T2 construct: expressed in transfected cells; host or cells: COS-7
T2 sequence (Q5MY95 1-495 L62P): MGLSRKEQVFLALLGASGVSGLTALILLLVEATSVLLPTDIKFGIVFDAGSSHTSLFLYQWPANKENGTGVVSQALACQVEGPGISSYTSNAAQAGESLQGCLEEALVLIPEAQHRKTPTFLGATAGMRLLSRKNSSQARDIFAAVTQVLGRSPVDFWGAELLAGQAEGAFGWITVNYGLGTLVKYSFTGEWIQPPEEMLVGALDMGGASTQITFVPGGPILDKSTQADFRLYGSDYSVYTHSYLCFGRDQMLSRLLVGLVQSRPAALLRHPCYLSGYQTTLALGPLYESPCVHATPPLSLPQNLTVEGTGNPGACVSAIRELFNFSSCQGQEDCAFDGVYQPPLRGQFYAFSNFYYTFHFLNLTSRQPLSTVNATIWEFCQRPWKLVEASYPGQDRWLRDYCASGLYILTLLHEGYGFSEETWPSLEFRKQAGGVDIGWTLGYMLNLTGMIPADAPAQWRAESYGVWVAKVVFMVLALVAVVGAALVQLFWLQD
Put plainly: Activity on protein extracts from human NTPDase8 transient transfected COS-7 cells. The format is biochemical. The conditions noted are these: substrate hydrolysis by human NTPDase8 protein extracts. The method, then: as §1
The activity of the protein extracts of human NTPDase8 was carried out as described previously herein and the results are shown in Table 3.

In assay [3] the test system is platelet aggregation in PRP. Put plainly: ADP-induced platelet aggregation in human PRP (optic density at 600 nm). The format is cell-based. To be noted: 4 uM ADP; PRP preincubated 25 seconds with 250 ug mNTPDase8 or 3 ug mNTPDase1 protein extracts. As to the method: Cell membrane preparation and platelet aggregation assays were performed as described before.
PRP prepared from human donors was tested for platelet activation in the presence of exogenous ADP and protein extracts from COS cell transfected with pcDNA3.11V5-His encoding mouse NTPDase8 (mNTPDase8) or mouse (mNTPDase1) (FIG. 6). Optic density at 600 nm was recorded over a period of 8 minutes. Before the addition of 4 uM ADP, PRP was preincubated for 25 seconds with 250 ug mNTPDase8 or 3 ug mNTPDase1 protein extracts, 250 ug untransfected COS cells or without protein extract (agonist: 4 uM ADP). Note that 4 uM ADP induced high levels of platelet aggregation in control samples.

In the case of `O=c1ccn([C@@H]2O[C@H](COP(=O)(O)OP(=O)(O)O)[C@@H](O)[C@H]2O)c(=O)[nH]1` [UDP], on mouse NTPDase8 [1], the “Vmax,app” value is 1.08 ± 0.06 U/mg of protein and the Km (as a rule, the concentration of substrate that gives half-maximal velocity) was 171 ± 15 µM. For the same molecule, on mouse NTPDase8 [2] (formed from UTP incubated with NTPDase8 extracts), the “remaining concentration after 120 min” value came out at 140 µM. The molecule further yielded an Activity at human NTPDase8 of 38 ± 5 nmols Pi/min/mg.

As for `Nc1ncnc2c1ncn2[C@@H]1O[C@H](COP(=O)(O)OP(=O)(O)O)[C@@H](O)[C@H]1O` [ADP], on mouse NTPDase8 [1], the “Vmax,app” value was 0.95 ± 0.08 U/mg of protein and the Michaelis-Menten constant (Km) turned out to be 41 ± 6 µM. Moreover, the “hydrolysis after 120 min” value at mouse NTPDase8 [2] (formed from ATP incubated with NTPDase8 extracts) was “completely hydrolyzed”. Moreover, the Activity at human NTPDase8 amounted to 55 ± 15 nmols Pi/min/mg.

Take `O=c1ccn([C@@H]2O[C@H](COP(=O)(O)OP(=O)(O)OP(=O)(O)O)[C@@H](O)[C@H]2O)c(=O)[nH]1` [UTP]: on mouse NTPDase8 [1], the “Vmax,app” value is given as 1.13 ± 0.02 U/mg of protein and the Km came to 47 ± 1 µM. Further, the Activity on human NTPDase8 stood at 271 ± 35 nmols Pi/min/mg.

Turning to `Nc1ncnc2c1ncn2[C@@H]1O[C@H](COP(=O)(O)OP(=O)(O)OP(=O)(O)O)[C@@H](O)[C@H]1O` [ATP], on mouse NTPDase8 [1], the “Vmax,app” value was 0.82 ± 0.02 U/mg of protein and the Km was 13 ± 6 µM. The Activity at human NTPDase8 is 264 ± 7 nmols Pi/min/mg.

In the case of `Nc1ncnc2c1ncn2[C@@H]1O[C@H](COP(=O)(O)O)[C@@H](O)[C@H]1O` [AMP], the “hydrolysis by NTPDase8” value on mouse NTPDase8 [1] (in the presence of Ca2+) is “did not hydrolyze”. This molecule showed an Activity on human NTPDase8 of 2 ± 0.6 nmols Pi/min/mg.

B1: mNTPDase8: mouse nucleoside triphosphate diphosphohydrolase 8, SEQ ID NO:1, protein extract from transfected COS-7 cells (protein)
chain: T1 sequence (Q8K0L2 1-497)
modifications: PEPTIDE (1)...(497) Mouse HTPDase8
For the molecule B1, in the assay with mouse NTPDase8 [1] (1 mM EDTA and 1 mM EGTA, any of the substrates tested), the “activity in absence of divalent cations” value is “no activity could be detected”. The “pH of optimal activity” value in the assay with mouse NTPDase8 [1] (ADPase activity, evaluated from pH 4.0 to 11.0) was roughly 6.4. Besides, in the assay with mouse NTPDase8 [1] (ATPase and ADPase activity, evaluated from pH 4.0 to 11.0), the “pH range in which highly active” value is reported as 5.5–7.0. Moreover, in the assay with mouse NTPDase8 [1] (in the presence of Ca2+), the “ratio of hydrolysis ATP/ADP” value was found to be 1.6±0.3 and the “ratio of hydrolysis UTP/UDP” value was found to be 2.1±0.3. The “inhibition of platelet aggregation” value in assay [3] is listed as 53%.

B2: mNTPDase1: mouse NTPDase1 protein extract from transfected COS cells (protein, UniProt P55772 1-510, looked up)
Ectonucleoside triphosphate …: MEDIKDSKVKRFCSKNILIILGFTSILAVIALIAVGLTQNKPLPENVKYGIVLDAGSSHTNLYIYKWPAEKENDTGVVQQLEECQVKGPGISKYAQKTDEIGAYLAECMELSTELIPTSKHHQTPVYLGATAGMRLLRMESEQSADEVLAAVSTSLKSYPFDFQGAKIITGQEEGAYGWITINYLLGRFTQEQSWLSLISDSQKQETFGALDLGGASTQITFVPQNSTIESPENSLQFRLYGEDYTVYTHSFLCYGKDQALWQKLAKDIQVSSGGVLKDPCFNPGYEKVVNVSELYGTPCTKRFEKKLPFDQFRIQGTGDYEQCHQSILELFNNSHCPYSQCAFNGVFLPPLHGSFGAFSAFYFVMDFFKKVAKNSVISQEKMTEITKNFCSKSWEETKTSYPSVKEKYLSEYCFSGAYILSLLQGYNFTDSSWEQIHFMGKIKDSNAGWTLGYMLNLTNMIPAEQPLSPPLPHSTYIGLMVLFSLLLVAVAITGLFIYSKPSYFWKEAV
modifications: COS cell extract
notes: mouse NTPDase1 protein extract from transfected COS cells
Take B2: the “inhibition of platelet aggregation” value in assay [3] was determined as 100%.
